Assay results as given in patent publication US9951065B2 (Gilead Sciences, Inc., priority 2015, dated 2018).

target: T1, IDO1 (Homo sapiens, UniProt P14902); experiment: Cell-based (HeLa) assay for measurement of IDO1 inhibition (kynurenine levels in supernatant after IFNγ induction); details: HeLa cells, IFNγ-induced IDO1, kynurenine in supernatant after 48 hour incubation; geometric mean of a minimum of four determinations
T1 construct: HeLa cells were treated with a test compound in the presence of IFNγ, which induces IDO1 expression; host or cells: H1-HeLa cells, IDO1 induced with IFNγ
T1 sequence (P14902 whole entry): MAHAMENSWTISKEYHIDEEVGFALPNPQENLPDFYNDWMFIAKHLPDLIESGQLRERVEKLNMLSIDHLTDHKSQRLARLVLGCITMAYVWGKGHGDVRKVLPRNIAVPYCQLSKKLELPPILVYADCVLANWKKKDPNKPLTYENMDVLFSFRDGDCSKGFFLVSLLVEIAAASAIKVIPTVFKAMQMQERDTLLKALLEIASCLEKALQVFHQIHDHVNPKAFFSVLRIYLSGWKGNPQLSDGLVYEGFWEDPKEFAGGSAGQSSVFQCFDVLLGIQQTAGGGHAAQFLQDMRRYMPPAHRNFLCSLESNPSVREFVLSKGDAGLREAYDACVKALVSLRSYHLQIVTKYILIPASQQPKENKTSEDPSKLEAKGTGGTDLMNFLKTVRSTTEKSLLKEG
In short: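 HeLa cells, 1,250 per well, treated with compound (0.5% DMSO final) plus IFNγ to induce IDO1, for 48 h. Supernatant kynurenine measured by TCA hydrolysis at 60 °C, then p-dimethylaminobenzaldehyde, absorbance 480 nm. EC50 from a four-parameter fit normalized to −/+IFNγ controls; geometric mean of at least four runs.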

Row | EC50 | SMILES
1 | 6.42 µM | CC(C)(O)c1nc2nccc(/C(=N/O)Nc3ccc(F)c(Cl)c3)c2[nH]1 [Example 175, N-(3-Chloro-4-fluorophenyl)-N′-hydroxy-2-(2-hydroxypropan-2-yl)-1H-imidazo[4,5-b]pyridine-7-carboximidamide]
2 | 2.06 µM | COCCNCc1nc2nccc(/C(=N/O)Nc3ccc(F)c(Cl)c3)c2[nH]1 [Example 124, N-(3-Chloro-4-fluorophenyl)-N′-hydroxy-2-(((2-methoxyethyl)amino)methyl)-1H-imidazo[4,5-b]pyridine-7-carboximidamide]
3 | 0.456 µM | Nc1nc2c(F)ccc(/C(=N/O)Nc3ccc(F)c(Br)c3)c2[nH]1 [Example 19, 2-Amino-N-(3-bromo-4-fluorophenyl)-4-fluoro-N′-hydroxy-1H-benzo[d]imidazole-7-carboximidamide]
4 | 2.28 µM | O/N=C(\Nc1ccc(F)c(Cl)c1)c1ccnc2nc(CNCc3cccnc3)[nH]c12 [Example 126, N-(3-Chloro-4-fluorophenyl)-N′-hydroxy-2-(((pyridin-3-ylmethyl)amino)methyl)-1H-imidazo[4,5-b]pyridine-7-carboximidamide]
5 | 0.607 µM | Nc1nc2c(F)c(F)cc(/C(=N/O)Nc3cccc(Cl)c3)c2[nH]1 [Example 16, 2-Amino-N-(3-chlorophenyl)-4,5-difluoro-N′-hydroxy-1H-benzo[d]imidazole-7-carboximidamide]
6 | > 10 µM | CS(=O)(=O)NCCc1nc2nccc(/C(=N/O)Nc3ccc(F)c(Cl)c3)c2[nH]1 [Example 266, N-(3-chloro-4-fluorophenyl)-N′-hydroxy-2-(2-(methylsulfonamido)ethyl)-1H-imidazo[4,5-b]pyridine-7-carboximidamide]

More lines, now with the values behind:

Row | SMILES | EC50
7 | O/N=C(\Nc1ccc(F)c(Cl)c1)c1cc(F)c(F)c2nc(NCCN3CCC(F)(F)CC3)[nH]c12 [Example 36, N-(3-Chloro-4-fluorophenyl)-2-((2-(4,4-difluoropiperidin-1-yl)ethyl)amino)-4,5-difluoro-N′-hydroxy-1H-benzo[d]imidazole-7-carboximidamide] | 0.712 µM
8 | Nc1nc2c(F)c(F)cc(/C(=N/O)Nc3ccc(F)c(Cl)c3)c2[nH]1 [Example 13, 2-Amino-N-(3-chloro-4-fluorophenyl)-4,5-difluoro-N′-hydroxy-1H-benzo[d]imidazole-7-carboximidamide] | 2.74 µM
9 | Cc1ccc(N/C(=N\O)c2ccnc3nc[nH]c23)cc1 [Example 94, N′-Hydroxy-N-(p-tolyl)-1H-imidazo[4,5-b]pyridine-7-carboximidamide] | 6.35 µM
10 | NCc1nc2c(F)c(F)cc(/C(=N/O)Nc3cccc(Cl)c3)c2[nH]1 [Example 31, 2-(Aminomethyl)-N-(3-chlorophenyl)-4,5-difluoro-N′-hydroxy-1H-benzo[d]imidazole-7-carboximidamide] | 1.68 µM
11 | O/N=C(\Nc1ccc(F)c(Cl)c1)c1ccnc2nc(-c3ccn[nH]3)[nH]c12 [Example 150, N-(3-Chloro-4-fluorophenyl)-N′-hydroxy-2-(1H-pyrazol-5-yl)-1H-imidazo[4,5-b]pyridine-7-carboximidamide] | 8.48 µM
12 | NCCc1nc2c(F)c(F)cc(/C(=N/O)Nc3ccc(F)c(Cl)c3)c2[nH]1 [Example 211, 2-(2-aminoethyl)-N-(3-chloro-4-fluorophenyl)-4,5-difluoro-N′-hydroxy-1H-benzo[d]imidazole-7-carboximidamide] | > 10 µM
13 | CCN(CC)CCc1nc2nccc(/C(=N/O)Nc3ccc(F)c(Cl)c3)c2[nH]1 [Example 185, N-(3-Chloro-4-fluorophenyl)-2-(2-(diethylamino)ethyl)-N′-hydroxy-1H-imidazo[4,5-b]pyridine-7-carboximidamide] | 0.531 µM
14 | CCOC(=O)Nc1nc2nccc(/C(=N/O)Nc3ccc(F)c(Cl)c3)c2[nH]1 [Example 160, Ethyl (7-(N-(3-chloro-4-fluorophenyl)-N′-hydroxycarbamimidoyl)-1H-imidazo[4,5-b]pyridin-2-yl)carbamate] | 0.423 µM

same assay, conditions: HeLa cells, IFNγ-induced IDO1, kynurenine in supernatant, 48 hour incubation; geometric mean of a minimum of four determinations

Row | EC50 | SMILES
15 | 1.33 µM | CN(CCc1nc2nccc(/C(=N/O)Nc3ccc(F)c(Cl)c3)c2[nH]1)CC1CCOCC1 [Example 399, N-(3-chloro-4-fluorophenyl)-N′-hydroxy-2-(2-(methyl((tetrahydro-2H-pyran-4-yl)methyl)amino)ethyl)-1H-imidazo[4,5-b]pyridine-7-carboximidamide]
16 | 1.02 µM | CN(CCNc1nc2c(F)c(F)cc(/C(=N/O)Nc3ccc(F)c(Cl)c3)c2[nH]1)Cc1ccccc1 [Example 390, 2-((2-(benzyl(methyl)amino)ethyl)amino)-N-(3-chloro-4-fluorophenyl)-4,5-difluoro-N′-hydroxy-W-benzo[d]imidazole-7-carboximidamide]
17 | 0.998 µM | CN(C)[C@@H]1CCCC[C@H]1Nc1nc2c(F)c(F)cc(/C(=N/O)Nc3ccc(F)c(Cl)c3)c2[nH]1 [Example 437, N-(3-chloro-4-fluorophenyl)-2-(((1R,2R)-2-(dimethylamino)cyclohexyl)amino)-4,5-difluoro-N′-hydroxy-1H-benzo[d]imidazole-7-carboximidamide]
18 | 3.43 µM | CN(C)c1ccccc1CNc1nc2c(F)c(F)cc(/C(=N/O)Nc3ccc(F)c(Cl)c3)c2[nH]1 [Example 348, N-(3-chloro-4-fluorophenyl)-2-((2-(dimethylamino)benzyl)amino)-4,5-difluoro-N′-hydroxy-1H-benzo[d]imidazole-7-carboximidamide]
19 | 0.271 µM | CN1CC[C@@H](Nc2nc3c(F)c(F)cc(/C(=N/O)Nc4ccc(F)c(Cl)c4)c3[nH]2)C1 [Example 457, (R)—N-(3-chloro-4-fluorophenyl)-4,5-difluoro-N′-hydroxy-2-((1-methylpyrrolidin-3-yl)amino)-1H-benzo[d]imidazole-7-carboximidamide]
20 | 2.02 µM | CN(C)C(CNc1nc2c(F)c(F)cc(/C(=N/O)Nc3ccc(F)c(Cl)c3)c2[nH]1)c1ccccc1 (stereo not drawn) [Example 436, N-(3-chloro-4-fluorophenyl)-2-((2-(dimethylamino)-2-phenylethyl)amino)-4,5-difluoro-N′-hydroxy-1H-benzo[d]imidazole-7-carboximidamide]
21 | 0.325 µM | CN1CC[C@H](Nc2nc3c(F)c(F)cc(/C(=N/O)Nc4ccc(F)c(Cl)c4)c3[nH]2)C1 [Example 447, (S)—N-(3-chloro-4-fluorophenyl)-4,5-difluoro-N′-hydroxy-2-((1-methylpyrrolidin-3-yl)amino)-1H-benzo[d]imidazole-7-carboximidamide]

The remaining lines, values behind:

Row | SMILES | EC50
22 | CN(C)[C@H]1CCC[C@H](Nc2nc3c(F)c(F)cc(/C(=N/O)Nc4ccc(F)c(Cl)c4)c3[nH]2)C1 [Example 439, N-(3-chloro-4-fluorophenyl)-2-(((1S,3S)-3-(dimethylamino)cyclohexyl)amino)-4,5-difluoro-N′-hydroxy-1H-benzo[d]imidazole-7-carboximidamide] | 6.8 µM
23 | CN1CCC(Nc2nc3c(F)c(F)cc(/C(=N/O)Nc4ccc(F)c(Cl)c4)c3[nH]2)CC1 [Example 442, N-(3-chloro-4-fluorophenyl)-4,5-difluoro-N′-hydroxy-2-((1-methylpiperidin-4-yl)amino)-1H-benzo[d]imidazole-7-carboximidamide] | 2.88 µM
24 | CN(C)CCNc1nc2c(F)c(F)cc(/C(=N/O)Nc3cccc(Cl)c3)c2[nH]1 [Example 431, N-(3-chlorophenyl)-2-((2-(dimethylamino)ethyl)amino)-4,5-difluoro-N′-hydroxy-1H-benzo[d]imidazole-7-carboximidamide] | 0.139 µM
